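Protocol summary: plate cells (96-well), add compound at 5 concentrations, incubate 48 h, interpolate endpoints linearly. GI50 is the concentration that inhibits growth by half. At the TGI there is no net growth.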
What was measured:
Assay in all cases: NCI anticancer screen, dose series, 48 h
EKVX NSCLC = system: EKVX NSCLC
COLO 205 colon = system: COLO 205 colon
MALME-3M melanoma = system: MALME-3M melanoma
OVCAR-8 ovarian = system: OVCAR-8 ovarian
MOLT-4 leukemia = system: MOLT-4 leukemia
RXF 393 renal = system: RXF 393 renal
LOX IMVI melanoma = system: LOX IMVI melanoma
HCC-2998 colon = system: HCC-2998 colon
NCI-H460 lung = system: NCI-H460 lung
MDA-MB-435 = system: MDA-MB-435

SMILES	TGI (EKVX NSCLC)	TGI (COLO 205 colon)	TGI (MALME-3M melanoma)	TGI (OVCAR-8 ovarian)	TGI (MOLT-4 leukemia)	TGI (RXF 393 renal)	TGI (LOX IMVI melanoma)	TGI (HCC-2998 colon)	TGI (NCI-H460 lung)	GI50 (MDA-MB-435)	TGI (MDA-MB-435)	GI50 (COLO 205 colon)	GI50 (MALME-3M melanoma)	GI50 (OVCAR-8 ovarian)	GI50 (MOLT-4 leukemia)	GI50 (RXF 393 renal)	GI50 (LOX IMVI melanoma)	GI50 (HCC-2998 colon)	GI50 (NCI-H460 lung)	GI50 (EKVX NSCLC)
N#CC(C#N)=C1NC(=O)CC(=O)N1	> 100 µM	> 100 µM	> 100 µM	> 100 µM	> 100 µM	> 100 µM	> 100 µM	> 100 µM	> 100 µM											
Fc1ccc(C2SCc3nc4ccccc4n32)c(F)c1 (centres undefined)	> 100 µM	> 100 µM	> 100 µM	> 100 µM	> 100 µM	> 100 µM	> 100 µM	> 100 µM	> 100 µM											
O=C1/C(=C/c2ccccc2[N+](=O)[O-])Cc2ccccc21		2.57 µM	5.71 µM	5.4 µM	9.04 µM	2.99 µM	4.39 µM	3.14 µM	13.1 µM	3.06 µM	11.8 µM	1.3 µM	2.28 µM	2.12 µM	2.92 µM	1.45 µM	1.88 µM	1.64 µM	1.15 µM	
CCCP1(=O)C=C(C)C(=C(Cl)Cl)C(C)=C1 (centres undefined)	> 100 µM	> 100 µM	> 100 µM	> 100 µM	98.6 µM	> 100 µM		92.4 µM	> 100 µM											
CC1(O)C=CC(=O)C=C1	> 100 µM	> 100 µM	39.5 µM	> 68.8 µM	> 72.7 µM	44.4 µM	52.5 µM	> 100 µM	44.9 µM											
N#CC(=C1C=CC(=NO)C=C1)c1ccc(Cl)cc1		34.5 µM	60.7 µM	60.3 µM	39.5 µM	36.5 µM	12 µM	33.1 µM	56.4 µM											
COc1ccc(-c2cc(Cc3cccs3)c(=O)[nH]n2)cc1	> 100 µM	> 100 µM	> 100 µM	> 100 µM		> 100 µM		> 100 µM												
COc1cc(C(=O)C/C(CCC(=O)Nc2ccccc2[N+](=O)[O-])=N\NC(N)=O)ccc1O	> 100 µM	> 100 µM	> 100 µM	> 100 µM	> 100 µM	> 100 µM	> 100 µM	> 100 µM	> 100 µM											
CS(=O)(=O)c1ccc(-c2cc(-c3ccc(S(C)(=O)=O)cc3)[n+](-c3cc(-c4ccc(S(C)(=O)=O)cc4)c([O-])c(-c4ccc(S(C)(=O)=O)cc4)c3)c(-c3ccc(S(C)(=O)=O)cc3)c2)cc1		> 100 µM	> 100 µM	> 100 µM	> 100 µM	> 100 µM	> 100 µM	> 100 µM	> 100 µM											
CC(=O)OC12C=C(C)C(C(C)C1)C1C(=O)N(CCN3CCOCC3)C(=O)C12 (centres undefined)	> 100 µM	> 100 µM	> 100 µM	> 100 µM	> 100 µM		> 100 µM	> 100 µM		> 100 µM	> 100 µM	> 100 µM	> 100 µM	> 100 µM	> 100 µM		> 100 µM	> 100 µM		> 100 µM
COc1ccc(C=O)c([N+](=O)[O-])c1	> 100 µM	> 100 µM	> 100 µM	> 100 µM	> 100 µM	> 100 µM	> 100 µM		> 100 µM											
CN(N=O)C(=O)ON1C(=O)CCC1=O	> 100 µM		> 100 µM	> 100 µM	> 100 µM		> 100 µM	> 100 µM	> 100 µM											
C#C[C@]1(O)CCCC2=CC(=O)CC[C@@]21C	> 100 µM	> 100 µM	> 100 µM	> 100 µM	> 100 µM	> 100 µM		> 100 µM	> 100 µM											
O=C1C(=C([O-])c2ccccc2)C(=O)c2ccccc21.O=C1C(=C([O-])c2ccccc2)C(=O)c2ccccc21.[Fe+2]		> 100 µM	> 100 µM	> 100 µM	> 100 µM		23.6 µM	> 100 µM				38.2 µM	> 100 µM	72.4 µM	> 100 µM		6.33 µM	69.5 µM		
CCN(CC)CC1c2ccccc2C(CNc2ccccc2)N1C (centres undefined)	> 100 µM	> 100 µM	> 100 µM	> 100 µM	> 100 µM	> 100 µM	> 100 µM	> 100 µM	> 100 µM											
C/C(=C\c1ccc2ccccc2c1)[N+](=O)[O-]		4.36 µM	3.97 µM	3.17 µM	6.48 µM	3.06 µM	2.8 µM	4.23 µM	3.83 µM	1.81 µM	3.6 µM	2.07 µM	2.07 µM	1.73 µM	2.61 µM	1.65 µM	1.19 µM	2.08 µM	1.88 µM	
COc1cc(N2C(=O)[C@H](O)C2c2ccc(SC)cc2)cc(OC)c1OC (some centres undefined)	> 100 µM	0.0357 µM	74 µM	22.4 µM	53.4 µM	> 100 µM	> 100 µM	65.3 µM	13.1 µM			0.0101 µM	21.6 µM	< 0.01 µM	0.0334 µM	< 0.01 µM	< 0.01 µM	0.0238 µM	< 0.01 µM	< 0.01 µM
OCc1ccc(N2CCCC2c2ccccc2)cc1Cl (centres undefined)		11.8 µM	28.2 µM	30.3 µM	24.9 µM	15.2 µM	22.5 µM	17.5 µM	7.22 µM	1.74 µM	4.18 µM	3.26 µM	9.73 µM	8.18 µM	4.75 µM	3.2 µM	9.67 µM	4.88 µM	0.833 µM	
COc1ccc(-c2[nH]c3ccccc3c2-c2ccc(OC)cc2)cc1	42.9 µM	16.8 µM		35.8 µM	9.62 µM		14.8 µM	21.1 µM	14 µM	1.79 µM	4.58 µM	4.13 µM		10.3 µM	2.68 µM		3.77 µM	6.11 µM	3.65 µM	5.05 µM

— PubChem BioAssay (NCI)
